# Source: PubChem BioAssay (NCI)
#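 Growth conditions: 96-well plates. Treatment: test compound, 48 hours, 5 concentrations. Analysis: linear interpolation between bracketing concentrations; unreached endpoints set to highest concentration. At the TGI there is no net growth.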
# Columns and labels:
# Test in all cases: DTP human tumour cell line panel, 48 h
# [1] = test system: MDA-N
# [2] = test system: BT-549 breast
# [3] = test system: SF-539 CNS
# [4] = test system: RXF 393 renal
# [5] = test system: MCF7 breast
# [6] = test system: EKVX NSCLC
# [7] = test system: COLO 205 colon
# [8] = test system: HT29 colon
# [9] = test system: PC-3 prostate
# [10] = test system: A549 NSCLC
# [11] = test system: IGROV1 ovarian
# [12] = test system: SK-MEL-28 melanoma
# [13] = test system: SNB-75 CNS
# [14] = test system: OVCAR-5 ovarian
Compound,TGI [1],TGI [2],TGI [3],TGI [4],TGI [5],TGI [6],TGI [7],TGI [8],TGI [9],TGI [10],TGI [11],TGI [12],TGI [13],TGI [14]
COc1c(C(CC(C)C)OC(C)=O)ccc2c1C(=O)OCc1cc(C)cc(O)c1O2 (stereo not drawn),29.9 µM,30 µM,32.9 µM,34 µM,25.6 µM,24.1 µM,31.8 µM,32.2 µM,21.6 µM,25.8 µM,30.4 µM,29.4 µM,42.1 µM,28.4 µM
c1ccc2c(c1)n1c(N3CCOCC3)[n+]3ccccc3c1c1c3cccc[n+]3c(N3CCOCC3)n21,> 100 µM,> 100 µM,> 100 µM,> 100 µM,> 100 µM,> 100 µM,> 100 µM,–,> 100 µM,> 100 µM,> 100 µM,> 100 µM,> 100 µM,> 100 µM
CC(C)[Si](OCC/C=C/C1CCC(=O)C1C(O)C1CCCCC1)(C(C)C)C(C)C (stereo not drawn),36.4 µM,34.1 µM,40.6 µM,26.4 µM,34.2 µM,28.9 µM,35.5 µM,26.2 µM,31.5 µM,28.7 µM,28.5 µM,29 µM,30.1 µM,33.4 µM
CCOC(=O)c1c(-c2ccc(Cl)cc2)c(C#N)c(=S)n(C2OC(CO)C(O)C(O)C2O)c1-c1ccccc1 (stereo not drawn),49.9 µM,61.3 µM,35 µM,47.1 µM,50.5 µM,–,80.9 µM,36.2 µM,50.4 µM,> 100 µM,> 100 µM,38.7 µM,87.3 µM,40.8 µM
c1ccc2c(OCC3CO3)ccc(OCC3CO3)c2c1 (stereo not drawn),13 µM,18.8 µM,4.8 µM,7.71 µM,4.66 µM,32.7 µM,23 µM,17.5 µM,17.1 µM,16.9 µM,16 µM,21.5 µM,28.4 µM,23.3 µM
COC(=O)CC1CN(C(=O)OCc2ccccc2)C(C)(C)O1 (stereo not drawn),> 100 µM,66.9 µM,> 100 µM,> 100 µM,> 100 µM,> 100 µM,> 100 µM,–,> 100 µM,> 100 µM,> 100 µM,> 100 µM,75.8 µM,> 100 µM
CC1N(O)C(c2ccccc2)C(c2ccccc2)=[N+]1[O-] (stereo not drawn),> 100 µM,> 100 µM,> 100 µM,> 100 µM,> 100 µM,> 100 µM,> 100 µM,> 100 µM,> 100 µM,> 100 µM,> 100 µM,> 100 µM,> 100 µM,> 100 µM
COC(=O)C(Cc1ccccc1)C(=O)NC(CNC(=O)OCc1ccccc1)C(=O)OCc1ccccc1 (stereo not drawn),58 µM,> 100 µM,> 100 µM,67.3 µM,> 100 µM,> 100 µM,37.7 µM,> 61.2 µM,> 100 µM,–,> 100 µM,44 µM,64.8 µM,> 100 µM
COC(=O)C1=C(C(=O)OC)C(C(=O)c2ccccc2)N2N=C(c3ccc(Cl)cc3)C=CC12 (stereo not drawn),> 100 µM,8.55 µM,> 100 µM,> 100 µM,> 100 µM,> 100 µM,> 100 µM,> 100 µM,> 100 µM,> 100 µM,–,> 100 µM,–,> 100 µM
OC1OC(c2ccc[nH]2)C(F)(F)C(F)(F)C1(F)F (stereo not drawn),> 100 µM,> 100 µM,> 100 µM,> 100 µM,> 100 µM,> 100 µM,> 100 µM,> 100 µM,> 100 µM,> 100 µM,> 100 µM,> 100 µM,> 100 µM,> 100 µM
CC(C(O)c1ccccc1)N(C)/N=N/c1nc2c([nH]1)c(=O)n(C)c(=O)n2C (stereo not drawn),> 100 µM,> 100 µM,–,> 100 µM,> 100 µM,> 100 µM,> 100 µM,> 100 µM,> 100 µM,> 100 µM,> 100 µM,> 100 µM,> 100 µM,> 100 µM
O=C(O)c1ccccc1C(=O)OCC1CCCN2CCCCC12 (stereo not drawn),> 100 µM,> 100 µM,> 100 µM,> 100 µM,> 100 µM,> 100 µM,> 100 µM,> 100 µM,> 100 µM,> 100 µM,> 100 µM,> 100 µM,> 100 µM,> 100 µM
CC1=CC[C@@]2(C)[C@@H]([C@@H]1C)[C@H]1CC[C@@H]3[C@@]4(C)CC[C@H](O)C(C)(C)[C@@H]4CC[C@@]3(C)[C@]1(C)C[C@@H]2O,> 55.4 µM,> 64.3 µM,> 55.7 µM,28.5 µM,> 100 µM,23.6 µM,32.1 µM,46 µM,40.6 µM,> 100 µM,42.2 µM,13.9 µM,> 100 µM,> 78.2 µM
CC1=C(C#N)C(=O)N(/N=C/c2ccc(Cl)cc2)C(=O)/C1=c1\o/c(=C2/C(=O)N(/N=C/c3ccc(Cl)cc3)C(=O)C(C#N)=C2C)c2nccnc12,> 100 µM,> 100 µM,> 100 µM,> 100 µM,> 100 µM,> 100 µM,> 100 µM,> 100 µM,> 100 µM,> 100 µM,> 100 µM,> 100 µM,85.3 µM,> 100 µM
Clc1cccc(Cl)c1C1SCc2nc3cc4ccccc4cc3n21 (stereo not drawn),> 100 µM,> 100 µM,–,> 100 µM,> 100 µM,> 100 µM,> 100 µM,> 100 µM,> 100 µM,> 100 µM,> 100 µM,> 100 µM,> 100 µM,> 100 µM
Cc1ccc(-c2cnc(NC3OC(COC(=O)c4ccccc4)C(OC(=O)c4ccccc4)C(OC(=O)c4ccccc4)C3OC(=O)c3ccccc3)s2)cc1 (stereo not drawn),> 100 µM,> 100 µM,–,> 100 µM,> 100 µM,> 100 µM,> 100 µM,> 100 µM,> 100 µM,> 100 µM,> 100 µM,> 100 µM,> 100 µM,> 100 µM
CCC1=NC(N/N=C/c2ccccc2O)=N/C1=C\c1ccccc1O,> 100 µM,> 53.7 µM,–,> 73.4 µM,> 76.1 µM,> 100 µM,> 74.8 µM,37.5 µM,> 100 µM,> 100 µM,56.9 µM,> 100 µM,> 100 µM,> 100 µM
COc1ccc(OC)c2c(=O)cc(-c3ccccc3)[nH]c12,> 100 µM,> 100 µM,–,> 100 µM,> 100 µM,> 100 µM,> 100 µM,> 100 µM,> 100 µM,> 100 µM,> 100 µM,> 100 µM,> 100 µM,> 100 µM
C#CCOC(=O)C(N)CS (stereo not drawn),> 100 µM,> 100 µM,–,> 100 µM,> 100 µM,> 100 µM,> 100 µM,> 100 µM,> 100 µM,> 100 µM,> 100 µM,> 100 µM,> 100 µM,> 100 µM
Cn1c(=S)[nH]c2c(Cl)cc(Cl)cc2c1=O,> 100 µM,> 100 µM,> 100 µM,> 100 µM,> 100 µM,> 100 µM,> 100 µM,–,> 100 µM,> 100 µM,> 100 µM,> 100 µM,> 100 µM,> 100 µM
O=C(n1[nH]c(=O)n(-c2ccc([N+](=O)[O-])cc2)c1=O)C(Cl)(Cl)Cl,> 75 µM,> 75 µM,–,> 75 µM,> 75 µM,> 75 µM,> 75 µM,> 75 µM,> 75 µM,> 75 µM,> 75 µM,> 75 µM,> 75 µM,> 75 µM
COCC1OCCN1C (stereo not drawn),> 100 µM,> 100 µM,> 100 µM,> 100 µM,> 100 µM,> 100 µM,> 100 µM,> 100 µM,> 100 µM,> 100 µM,> 100 µM,–,> 100 µM,> 100 µM
Cc1cc(C)n(C(=O)C(C)Sc2nnc(SC(C)C(=O)n3nc(C)cc3C)s2)n1 (stereo not drawn),> 100 µM,> 100 µM,–,> 100 µM,> 100 µM,> 100 µM,> 100 µM,> 100 µM,> 100 µM,> 100 µM,> 100 µM,> 100 µM,> 100 µM,> 100 µM
C=C1[C@H](OCC(C)C)[C@@H](OCC(C)C)[C@@H](O)C(C)(C)/C=C/[C@H](C)C(=O)[C@@]2(O)C[C@H](C)[C@H](O)[C@@H]2[C@H]1OCC(C)C,> 7.5 µM,> 7.5 µM,> 7.5 µM,> 7.5 µM,> 7.5 µM,–,> 7.5 µM,–,> 7.5 µM,–,–,–,> 7.5 µM,> 7.5 µM
NC(=Nc1ccc(Cl)c(Cl)c1)c1ccccc1N,53.4 µM,> 100 µM,–,75.9 µM,> 100 µM,> 100 µM,52.8 µM,> 100 µM,92.4 µM,> 100 µM,97.9 µM,52.2 µM,75.7 µM,> 100 µM
